US20240335570A1, “FOLATE RECEPTOR-TARGETED CONJUGATES WITH BRUSH BORDER MEMBRANE ENZYME-CLEAVABLE LINKERS AND METHODS OF USE IN IMAGING AND TREATING CANCER” (PURDUE RESEARCH FOUNDATION, priority 2021, published 2024)
pKd: −log10 of the molar value. No end group written: not given here.

Each molecule was assayed on KB cells (assay: Folate conjugate binding curves in KB cells by flow cytometry). Conditions: KB cells incubated 1 hour at 4° C. with increasing concentrations of conjugate, concentrations normalized via fluorescence, read-out: Kd (folate conjugate binding curve).
Protocol: KB cells were incubated for 1 hour at 4° C. with increasing concentrations of OTL38, BBM1, BBM2, or BBM3 in staining buffer, washed three times with staining buffer, and then analyzed via flow cytometry.
KB cells were incubated for 1 hour at 4° C. with increasing concentrations of OTL38, BBM1, BBM2 or BBM3 in staining buffer, washed three times with staining buffer, suspended in phosphate-buffered saline, and then analyzed via flow cytometry. Concentrations of all conjugates were normalized via fluorescence.

Molecule | pKd
CCCCCN1c2ccc(C)cc2C(C)(C)C1CCc1cccc(CCC2N(CCCCC)c3ccc(C)cc3C2(C)C)c1Oc1ccc(CCNC(=O)CCN2C(=O)CC(SCC(NC(=O)C(CCCCN)NC(=O)[C@@H](NC(=O)C(CCCC)NC(=O)CCC(NC(=O)c3ccc(NCc4cnc5nc(N)nc(O)c5n4)cc3)C(=O)O)C(C)C)C(=O)O)C2=O)cc1 (stereo partly drawn) [BBM1] | 7.91
BBM2: Folate dye conjugate; a peptide with the sequence M-V-K-G-Y-G-K-C (MVKGYGKC; also: folate dye conjugate (site not given here)) | 7.53
OTL38 [reference compound] | 8.17
